Laboratory results from US11890288B2, “Sulfonamide or sulfinamide compound having effect of inducing BRD4 protein degradation and pharmaceutical use thereof” (MITSUBISHI TANABE PHARMA CORPORATION, priority 2020, dated 2024).

Legend:
[1] = system: human prostate cancer LNCaP cells; test: Cytotoxic action on LNCaP cells (WST-8, 96 hr); assay type: cell-based; conditions: 96 hr culture
Outline: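 Growth-inhibition format: 96 hr continuous exposure, 37° C, 5% CO2, 10% FBS/RPMI1640, WST-8 read-out. Values are IC50 against the untreated-control survival, taken from the line joining the two points around 50%.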

[2] = system: human acute myeloid leukemia MV-4-11 cell; test: Cytotoxic action on MV-4-11 cells (WST-8, 96 hr); assay type: cell-based; conditions: MV4-11, MV-4-11, 96 hr
Procedure: (§1) The cytotoxic action of the compound of the present invention against human cancer cells was evaluated in vitro. In this experiment, (+)-JQ1 (Nature volume 468, pages 1067-1073 (23 Dec. 2010)) known to have an inhibitory activity on the binding of BRD4 protein and a ligand therefor was used as a positive control drug. Respective cells were suspended in 10% FBS/RPMI1640, seeded in a 96 well plate and cultured at 5% CO2, 37° C. overnight. A test compound dissolved in DMSO was diluted with 10% FBS/RPMI1640 and added and the cells were further cultured for 96 hr. After culturing, the viable cell number was measured using a cell number measurement WST-8 kit (Kishida Chemical Co., Ltd.). As a control, the measurement was performed under conditions free of the test compound. The cytotoxic activity of the compound of the present invention against human prostate cancer LNCaP cells is shown in IC50 value in Table 1. The IC50 value is a concentration of the compound showing 50% cell survival rate when the cell survival rate thereof under compound untreated condition is 100%. It was calculated from the straight line connecting the cell survival rate at two points enclosing the 50% cell survival rate and the compound concentration. […]

[3] = system: human Burkitt lymphoma Raji cell; test: Cytotoxic action on Raji cells (WST-8, 96 hr); assay type: cell-based
Procedure: as §1

[4] = system: human AR-V7 positive castration-resistant prostate cancer 22Rv1 cell; test: Cytotoxic action on 22Rv1 cells (WST-8, 96 hr); assay type: cell-based; conditions: 22Rv1, 96 hr
Procedure: as §1

[5] = system: human ovarian cancer A2780 cell; test: Cytotoxic action on A2780 cells (WST-8, 96 hr); assay type: cell-based; conditions: A2780, 96 hr
Procedure: as §1

[6] = system: human cisplatin-resistant ovarian cancer SK-OV-03 cell; test: Cytotoxic action on SK-OV-03 cells (WST-8, 96 hr); assay type: cell-based; conditions: SK-OV-03, 96 hr
Procedure: as §1

[7] = system: human triple negative breast cancer MDA-MB-231 cell; test: Cytotoxic action on MDA-MB-231 cells (WST-8, 96 hr); assay type: cell-based; conditions: MDA-MB-231, 96 hr
Procedure: as §1

[8] = system: human uterus cervix cancer HeLa cell; test: Cytotoxic action on HeLa cells (WST-8, 96 hr); assay type: cell-based
Procedure: as §1

[9] = system: human stomach cancer SNU-16 cell; test: Cytotoxic action on SNU-16 cells (WST-8, 96 hr); assay type: cell-based; conditions: SNU-16, 96 hr
Procedure: as §1

[10] = system: human non-small cell lung cancer NCI-H2126 cell; test: Cytotoxic action on NCI-H2126 cells (WST-8, 96 hr); assay type: cell-based; conditions: NCI-H2126, 96 hr
Procedure: as §1

[11] = system: human EGFRT790M mutation-positive non-small cell lung cancer NCI-H1975 cell; test: Cytotoxic action on NCI-H1975 cells (WST-8, 96 hr); assay type: cell-based; conditions: NCI-H1975, 96 hr
Procedure: as §1

[12] = system: human small cell lung cancer NCI-H82 cell; test: Cytotoxic action on NCI-H82 cells (WST-8, 96 hr); assay type: cell-based; conditions: NCI-H82, 96 hr
Procedure: as §1

[13] = system: human colon cancer HCT116 cell; test: Cytotoxic action on HCT116 cells (WST-8, 96 hr); assay type: cell-based; conditions: HCT-116, HCT116, 96 hr
Procedure: as §1

[14] = system: human liver cancer HLF cell; test: Cytotoxic action on HLF cells (WST-8, 96 hr); assay type: cell-based
Procedure: as §1

[15] = system: human bile duct cancer HuCCT1 cell; test: Cytotoxic action on HuCCT1 cells (WST-8, 96 hr); assay type: cell-based; conditions: HuCCT-1, HuCCT1, 96 hr
Procedure: as §1

[16] = system: human renal cell cancer 786-O cell; test: Cytotoxic action on 786-O cells (WST-8, 96 hr); assay type: cell-based; conditions: 786-O (printed 786-0)
Procedure: as §1

[17] = system: human fibrosarcoma HT1080 cell; test: Cytotoxic action on HT1080 cells (WST-8, 96 hr); assay type: cell-based; conditions: HT-1080, HT1080, 96 hr
Procedure: as §1

[18] = system: Human breast cancer MDA-MB-436 cells; test: Cytotoxic action on MDA-MB-436 cells (WST-8, 96 hr); assay type: cell-based; conditions: Homo sapiens
Procedure: (§2) The cytotoxic action of the compound of the present invention against cancer cells that acquired resistance to conventional BRD4 protein degradation inducing agents was evaluated in vitro. In this experiment, ARV-771 (Proc Natl Acad Sci USA. volume 113, pages 7124-7129 (28 Jun. 2016)) and MZ1 (ACS Chem Biol. Volume 10, pages 1770-1777 (21 Aug. 2015)), in which a ligand for VHL and BRD4 protein inhibitor are linked, were used as a conventional BRD4 protein degradation inducing agent serving as a comparison control. Human breast cancer MDA-MB-436 cells and MDA-MB-436 cells that acquired resistance to conventional BRD4 protein degradation inducing agents (MDA-MB-436 w/o2 cells) were suspended in 10% FBS/RPMI1640, seeded in a 96 well plate and cultured at 5% CO2, 37° C. overnight. A test compound dissolved in DMSO was diluted with 10% FBS/RPMI1640 and added and the cells were further cultured for 96 hr. After culturing, the viable cell number was measured using a cell number measurement WST-8 kit (Kishida Chemical Co., Ltd.). As a control, the measurement was performed under conditions free of the test compound. The cytotoxic activity of the compound of the present invention against each cell is shown in IC50 value in Table 4. The IC50 value is a concentration of the compound showing 50% cell survival rate when the cell survival rate thereof under compound untreated condition is 100%. It was calculated from the straight line connecting the cell survival rate at two points enclosing the 50% cell survival rate and the compound concentration. In addition, the tolerance (fold) was calculated by dividing the IC50 value in MDA-MB-436 w/o2 cells by the IC50 value in MDA-MB-436 cells.

MDA-MB-436 w/o2 cells = test: Cytotoxic action on MDA-MB-436 w/o2 cells that acquired resistance to conventional BRD4 degraders (WST-8, 96 hr); assay type: cell-based, human
Procedure: as §2

COC(=O)C[C@@H]1N=C(c2ccc(-c3ccc(C(=O)NCc4ccc(S(=O)(=O)Nc5ccc(C)c6c(C#N)c[nH]c56)cc4)cc3)cc2)c2c(sc(C)c2C)-n2c(C)nnc21 [Example 1, methyl [(6S)-4-{4′-[({4-[(3-cyano-4-methyl-1H-indol-7-yl)sulfamoyl]phenyl}methyl)carbamoyl][1,1′-biphenyl]-4-yl}-2,3,9-trimethyl-6H-thieno[3,2-f][1,2,4]triazolo[4,3-a][1,4]diazepin-6-yl]acetate]
IC50 [1]: 0.14 nM | IC50 [2]: 0.16 nM | IC50 [3]: 5.3 nM | IC50 [4]: 0.71 nM | IC50 [5]: 0.19 nM | IC50 [6]: 41 nM | IC50 [7]: 4 nM | IC50 [8]: 27 nM | IC50 [9]: 6.4 nM | IC50 [10]: 6.6 nM | IC50 [11]: 3.6 nM | IC50 [12]: 21 nM | IC50 [13]: 8.8 nM | IC50 [14]: 2.9 nM | IC50 [15]: 26 nM | IC50 [16]: 660 nM | IC50 [17]: 13 nM | IC50 [18]: 0.39 nM | IC50 (MDA-MB-436 w/o2 cells; Homo sapiens, MDA-MB-436 w/o2 cells, 96 hr): 0.51 nM | resistance (MDA-MB-436 w/o2 cells; IC50 in MDA-MB-436 w/o2 cells divided by IC50 in MDA-MB-436 cells): 1.3 fold
